Measurements as given in ChEMBL document CHEMBL6121021, “Design and Synthesis of Topoisomerases-Histone Deacetylase Dual Targeted Quinoline-Bridged Hydroxamates as Anticancer Agents” (J Med Chem, 2025).
Active and inactive are the calls of the source. The rule behind the calls is not given here.

Experiments:
[1] = tested on: HT-29; experiment: cells; assay type: functional, cell-based; conditions: Homo sapiens, HT-29, 48 h
[2] = tested on: MDA-MB-231; experiment: cells; assay type: functional, cell-based; conditions: Homo sapiens, MDA-MB-231, 48 h
[3] = tested on: NCI-H1299; experiment: cells; assay type: functional, cell-based; conditions: Homo sapiens, NCI-H1299, 48 h
[4] = tested on: MCF7; experiment: cells; assay type: functional, cell-based; conditions: Homo sapiens, MCF7, 48 h
[5] = tested on: A549; experiment: cells; conditions: Homo sapiens, A549, 48 h
[6] = tested on: MDA-MB-231; experiment: Anti-cancer activity against human MDA-MB-231 cells assessed as decrease in PCNA level at 5 uM incubated for 48 hrs by immunoblot analysis; assay type: functional, cell-based
[7] = biological target: T1, Histone deacetylase 1 (Homo sapiens, UniProt Q13547); experiment: Inhibition of HDAC1 extracted from human A549 nucleus incubated for 1 hr by fluorometric assay; assay type: cell-free
T1 sequence (Q13547 whole entry): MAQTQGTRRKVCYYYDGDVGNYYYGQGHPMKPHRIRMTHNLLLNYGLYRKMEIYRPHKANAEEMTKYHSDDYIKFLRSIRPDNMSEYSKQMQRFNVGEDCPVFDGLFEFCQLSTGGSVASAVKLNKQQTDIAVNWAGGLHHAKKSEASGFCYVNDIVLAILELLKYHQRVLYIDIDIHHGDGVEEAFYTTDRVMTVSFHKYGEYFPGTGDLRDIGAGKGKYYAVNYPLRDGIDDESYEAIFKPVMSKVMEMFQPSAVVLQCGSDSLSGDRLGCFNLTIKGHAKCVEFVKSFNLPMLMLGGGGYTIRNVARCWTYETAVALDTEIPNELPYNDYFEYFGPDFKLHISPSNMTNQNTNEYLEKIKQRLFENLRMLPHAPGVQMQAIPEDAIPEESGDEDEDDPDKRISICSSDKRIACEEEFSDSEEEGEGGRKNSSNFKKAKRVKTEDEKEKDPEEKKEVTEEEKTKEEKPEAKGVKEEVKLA

[8] = tested on: Supercoiled DNA; experiment: Binding affinity to supercoiled DNA (unknown origin) assessed as DNA intercalation measured after 30 mins by gel electrophoresis; assay type: nucleic-acid assay
[9] = tested on: A549; experiment: Induction of ROS generation in human A549 cells incubated for 48 hrs by DCFH-DA staining based analysis; assay type: functional, cell-based
[10] = tested on: A549; experiment: Induction of cell cycle arrest in human A549 cells assessed as accumulation at G2/M phase by PI staining based flow cytometry; assay type: functional
[11] = biological target: T2, DNA topoisomerase 1 (Homo sapiens) (UniProt P11387); experiment: Inhibition of human Topo I-mediated relaxation of supercoiled DNA preincubated for 30 mins followed by proteinase K addition measured after 30 mins by gel electrophoresis; conditions: time 60.0 min
T2 sequence (whole entry): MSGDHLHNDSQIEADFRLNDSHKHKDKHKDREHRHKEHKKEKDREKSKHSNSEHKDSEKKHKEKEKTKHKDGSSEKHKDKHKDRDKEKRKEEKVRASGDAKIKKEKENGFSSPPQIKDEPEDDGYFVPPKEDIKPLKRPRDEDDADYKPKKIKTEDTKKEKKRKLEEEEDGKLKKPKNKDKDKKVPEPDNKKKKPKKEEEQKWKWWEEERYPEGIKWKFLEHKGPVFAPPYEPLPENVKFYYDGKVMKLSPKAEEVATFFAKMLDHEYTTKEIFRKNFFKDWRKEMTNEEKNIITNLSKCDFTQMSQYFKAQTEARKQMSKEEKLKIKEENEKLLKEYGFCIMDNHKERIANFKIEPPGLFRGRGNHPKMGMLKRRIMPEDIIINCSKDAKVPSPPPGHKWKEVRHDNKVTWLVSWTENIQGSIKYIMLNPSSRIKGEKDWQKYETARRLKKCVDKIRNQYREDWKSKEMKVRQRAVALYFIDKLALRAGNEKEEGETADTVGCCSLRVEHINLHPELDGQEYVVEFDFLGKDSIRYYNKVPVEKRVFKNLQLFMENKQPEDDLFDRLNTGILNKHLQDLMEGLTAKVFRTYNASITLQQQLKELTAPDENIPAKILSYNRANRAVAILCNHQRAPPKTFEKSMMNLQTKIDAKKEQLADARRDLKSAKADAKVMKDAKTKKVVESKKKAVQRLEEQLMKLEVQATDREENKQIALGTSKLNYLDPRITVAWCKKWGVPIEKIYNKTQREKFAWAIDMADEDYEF

[12] = tested on: A549; experiment: Effect on mitochondrial membrane permeability in human A549 cells assessed as decrease in red to green fluorescence ratio at sub-IC50 incubated for 48 hrs by JC-1 staining based analysis; assay type: functional, cell-based
[13] = tested on: A549; experiment: Induction of apoptosis in human A549 cells by Annexin-V/PI staining based flow cytometry; assay type: functional, cell-based
[14] = biological target: DNA topoisomerase 2-alpha (Homo sapiens, UniProt P11388); experiment: Inhibition of human Topo II-alpha-mediated decatenation of kDNA at 100 uM incubated for 30 mins
DNA topoisomerase 2-alpha, sequence (P11388 whole entry): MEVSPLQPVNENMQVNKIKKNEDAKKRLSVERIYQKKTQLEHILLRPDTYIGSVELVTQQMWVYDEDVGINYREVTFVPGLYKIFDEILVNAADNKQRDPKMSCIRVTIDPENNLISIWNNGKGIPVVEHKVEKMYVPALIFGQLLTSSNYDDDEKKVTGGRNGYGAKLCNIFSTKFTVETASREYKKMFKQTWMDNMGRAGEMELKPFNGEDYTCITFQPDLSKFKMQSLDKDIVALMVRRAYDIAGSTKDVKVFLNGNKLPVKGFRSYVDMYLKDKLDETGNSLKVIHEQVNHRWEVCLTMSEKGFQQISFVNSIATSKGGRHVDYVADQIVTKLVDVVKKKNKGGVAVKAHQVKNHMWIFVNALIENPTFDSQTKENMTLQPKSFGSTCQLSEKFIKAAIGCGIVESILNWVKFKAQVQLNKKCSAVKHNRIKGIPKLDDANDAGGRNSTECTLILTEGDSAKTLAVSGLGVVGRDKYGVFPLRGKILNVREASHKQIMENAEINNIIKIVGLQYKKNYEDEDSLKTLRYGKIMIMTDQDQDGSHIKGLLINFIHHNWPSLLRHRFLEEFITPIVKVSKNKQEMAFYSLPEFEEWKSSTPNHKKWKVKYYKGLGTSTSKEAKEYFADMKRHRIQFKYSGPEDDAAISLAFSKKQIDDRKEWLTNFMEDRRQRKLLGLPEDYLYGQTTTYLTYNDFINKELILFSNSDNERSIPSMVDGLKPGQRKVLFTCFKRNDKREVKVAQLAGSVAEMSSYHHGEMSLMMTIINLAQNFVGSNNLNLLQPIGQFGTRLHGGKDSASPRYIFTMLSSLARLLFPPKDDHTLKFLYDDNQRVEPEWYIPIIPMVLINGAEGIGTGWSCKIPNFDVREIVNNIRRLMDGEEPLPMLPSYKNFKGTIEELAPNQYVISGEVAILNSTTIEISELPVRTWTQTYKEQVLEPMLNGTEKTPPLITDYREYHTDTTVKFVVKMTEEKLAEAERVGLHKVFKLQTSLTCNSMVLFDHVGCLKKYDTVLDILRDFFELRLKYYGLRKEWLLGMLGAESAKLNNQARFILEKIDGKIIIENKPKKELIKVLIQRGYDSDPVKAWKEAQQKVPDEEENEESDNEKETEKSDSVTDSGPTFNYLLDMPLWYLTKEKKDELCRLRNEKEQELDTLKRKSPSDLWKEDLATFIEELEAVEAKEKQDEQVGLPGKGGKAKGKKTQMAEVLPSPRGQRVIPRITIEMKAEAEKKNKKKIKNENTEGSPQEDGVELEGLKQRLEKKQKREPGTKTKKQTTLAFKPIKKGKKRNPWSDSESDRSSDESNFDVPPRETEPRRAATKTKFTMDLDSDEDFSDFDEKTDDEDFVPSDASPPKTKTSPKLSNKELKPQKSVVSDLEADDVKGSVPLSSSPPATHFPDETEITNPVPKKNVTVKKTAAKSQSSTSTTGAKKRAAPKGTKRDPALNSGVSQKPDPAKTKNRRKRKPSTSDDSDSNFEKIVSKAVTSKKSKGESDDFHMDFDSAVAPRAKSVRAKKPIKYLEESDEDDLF

[15] = biological target: T3, Protein deacetylase HDAC6 (Homo sapiens, UniProt Q9UBN7); experiment: Inhibition of HDAC6 (unknown origin) using acetylated-peptide substrate by fluorometric assay
T3 sequence (Q9UBN7 whole entry): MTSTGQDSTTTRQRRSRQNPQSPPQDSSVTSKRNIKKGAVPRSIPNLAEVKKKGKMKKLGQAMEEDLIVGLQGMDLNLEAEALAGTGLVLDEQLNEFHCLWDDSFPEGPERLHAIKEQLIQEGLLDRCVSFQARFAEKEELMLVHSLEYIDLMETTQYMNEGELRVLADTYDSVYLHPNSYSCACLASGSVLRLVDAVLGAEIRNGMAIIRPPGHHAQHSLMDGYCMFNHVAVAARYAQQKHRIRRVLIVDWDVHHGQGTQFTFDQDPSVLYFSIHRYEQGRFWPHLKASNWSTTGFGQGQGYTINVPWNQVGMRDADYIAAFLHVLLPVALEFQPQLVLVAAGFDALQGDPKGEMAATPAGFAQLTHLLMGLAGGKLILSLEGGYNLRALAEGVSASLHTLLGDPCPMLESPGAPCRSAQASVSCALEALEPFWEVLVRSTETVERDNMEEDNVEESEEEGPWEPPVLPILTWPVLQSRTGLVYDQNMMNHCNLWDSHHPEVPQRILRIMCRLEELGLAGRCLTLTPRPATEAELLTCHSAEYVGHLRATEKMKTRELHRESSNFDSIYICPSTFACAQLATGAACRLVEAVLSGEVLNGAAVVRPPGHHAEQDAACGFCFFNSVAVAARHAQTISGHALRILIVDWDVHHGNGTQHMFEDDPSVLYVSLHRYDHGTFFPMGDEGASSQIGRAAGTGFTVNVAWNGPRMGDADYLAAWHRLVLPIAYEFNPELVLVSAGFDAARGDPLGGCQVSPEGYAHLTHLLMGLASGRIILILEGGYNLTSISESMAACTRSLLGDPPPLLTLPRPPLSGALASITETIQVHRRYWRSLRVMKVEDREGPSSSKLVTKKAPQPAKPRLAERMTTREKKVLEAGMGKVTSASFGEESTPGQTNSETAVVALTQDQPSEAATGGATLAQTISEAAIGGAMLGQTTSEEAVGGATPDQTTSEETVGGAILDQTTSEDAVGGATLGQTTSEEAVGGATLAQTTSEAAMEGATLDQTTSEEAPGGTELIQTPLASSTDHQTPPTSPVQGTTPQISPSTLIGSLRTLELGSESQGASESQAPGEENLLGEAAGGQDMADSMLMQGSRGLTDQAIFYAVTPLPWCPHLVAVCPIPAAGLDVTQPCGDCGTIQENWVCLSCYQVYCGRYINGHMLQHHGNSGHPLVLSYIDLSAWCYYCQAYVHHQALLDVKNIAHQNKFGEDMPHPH

[16] = tested on: A549; experiment: Anti-cancer activity against human A549 3D cell culture model at sub- IC50 incubated for 17 days with replacement of medium containing compound on every third day; assay type: functional, cell-based; conditions: time 17.0 day
[17] = tested on: A549; experiment: Induction of ROS generation in human A549 cells incubated for 48 hrs by Cell Rox red staining based flow cytometry; assay type: functional
[18] = tested on: A549; experiment: Anti-cancer activity against human A549 3D cell culture model assessed as inhibition of 3D culture initiation at sub- IC50 incubated for 21 days with replacement of medium containing compound on every seventh day; assay type: functional, cell-based; conditions: time 21.0 day
[19] = tested on: A549; experiment: Induction of cell cycle arrest in human A549 cells assessed as accumulation at G1 phase by PI staining based flow cytometry; assay type: functional
[20] = biological target: T4, Histone deacetylase 8 (Homo sapiens, UniProt Q9BY41); experiment: Inhibition of HDAC8 (unknown origin) by fluorometric assay
T4 sequence (Q9BY41 whole entry): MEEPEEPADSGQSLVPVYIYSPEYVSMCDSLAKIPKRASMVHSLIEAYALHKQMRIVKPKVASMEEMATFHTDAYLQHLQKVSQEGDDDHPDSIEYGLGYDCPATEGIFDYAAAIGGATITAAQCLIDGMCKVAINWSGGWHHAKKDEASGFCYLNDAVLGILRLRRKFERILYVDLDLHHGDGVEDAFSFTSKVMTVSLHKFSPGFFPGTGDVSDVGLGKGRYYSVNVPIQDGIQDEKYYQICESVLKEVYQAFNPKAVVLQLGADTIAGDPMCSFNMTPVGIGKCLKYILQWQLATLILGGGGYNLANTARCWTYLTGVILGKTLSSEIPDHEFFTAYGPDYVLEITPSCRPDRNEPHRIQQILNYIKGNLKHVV

[21] = Toxicity in athymic nude Crl:NU-Foxn1nu mouse xenografted with human A549 cells assessed as animal survival at 30 mg/kg, po administered twice a week for 1 month; assay type: organism-based; conditions: in vivo, 730 h, time 1 months
[22] = Antiproliferative activity against human NCI-H1975 cells harboring EGFR T790M mutant incubated for 48 hrs by MTT assay; assay type: functional, cell-based; conditions: NCI-H1975, 48 h
[23] = biological target: T3, Protein deacetylase HDAC6; experiment: Inhibition of HDAC6 (unknown origin)
[24] = biological target: T1, Histone deacetylase 1; experiment: Inhibition of HDAC1 (unknown origin)
[25] = biological target: T1, Histone deacetylase 1; experiment: Inhibition of HDAC1 (unknown origin) incubated for 48 hrs

Structure (SMILES) | IC50 [1] | IC50 [2] | IC50 [3] | IC50 [4] | IC50 [5] | IC50 [7] | Activity [8] | inhibition [14] | IC50 [15] | IC50 [20] | also measured
CC[C@@]1(O)C(=O)OCc2c1cc1n(c2=O)Cc2cc3ccccc3nc2-1 [CAMPTOTHECIN] | 6870 nM | 7360 nM | 5220 nM | 5670 nM | 6860 nM |  |  |  |  |  | Activity [6]: inactive
COc1ccc(-c2ccc3ccc(OCCCCCC(=O)NO)cc3n2)cc1I | 2860 nM | 1490 nM | 1980 nM | 2870 nM | 1770 nM | 33.5 nM | inactive | Active; Observed As More Active Than Etoposide | 47.8 nM | > 500 nM | Activity [9]: Active; Activity [10]: Active; inhibition [11]: Active; Activity [12]: Not active; Result Signifies That Cell Death Induced Via Mitochondrial-Independent Pathways; Activity [13]: Active; Activity [16]: Active; Exhibited Potent Effect; Activity [17]: Active; inhibition [18]: Active; Activity [19]: Active
COc1cc([C@@H]2c3cc4c(cc3[C@@H](O[C@@H]3O[C@@H]5CO[C@@H](C)O[C@H]5[C@H](O)[C@H]3O)[C@H]3COC(=O)[C@H]23)OCO4)cc(OC)c1O [ETOPOSIDE] |  |  |  |  |  |  |  |  |  |  | Activity [21]: Non-toxic; IC50 [22]: 1630 nM
COc1cc(-c2ccc3cc(OCCCCCC(=O)NO)ccc3n2)cc(OC)c1OC | 1900 nM | 6240 nM | 3230 nM | 5220 nM | 1850 nM | 44.1 nM | inactive | Active | > 500 nM | > 500 nM | 
O=C(CCCCCn1cc(-c2ccc(Nc3c4ccccc4nc4ccccc34)cc2)nn1)NO |  |  |  |  |  |  |  |  |  |  | IC50 [23]: 2.9 nM; IC50 [24]: 3.9 nM
COc1cc(-c2ccc3cc(OCCCCCCC(=O)NO)ccc3n2)cc(OC)c1OC | 4970 nM | 5870 nM | 4810 nM | 4660 nM | 3750 nM | 69.8 nM | inactive | Active | 243 nM | > 500 nM | 
O=C(CCCCCCC(=O)Nc1ccccc1)NO [VORINOSTAT] |  |  |  |  | 7760 nM |  |  |  |  |  | Activity [21]: Non-toxic; IC50 [22]: 1030 nM
COc1ccc(-c2ccc3cc(OCCCCCCC(=O)NO)ccc3n2)cc1 | 3910 nM | 978 nM | 2330 nM | 1440 nM | 1600 nM | 28 nM | inactive | Active; Observed As More Active Than Etoposide | > 500 nM | > 500 nM | Activity [9]: Active; Activity [10]: Active; inhibition [11]: Active; Activity [12]: Active; Result Signifies That Cell Death Induced Via Mitochondrial-Dependent Pathways; Activity [13]: Active; Activity [16]: Active; Exhibited Commendable Decrease In Mass Of 3D Sphere; Activity [17]: Active; inhibition [18]: Active; Activity [19]: Active
CC[C@@]1(O)C(=O)OCc2c1cc1n(c2=O)Cc2c-1nc1ccccc1c2/C=N\OCCCCCCC(=O)NO |  |  |  |  |  |  |  |  |  |  | IC50 [23]: 5.22 nM; IC50 [24]: 5.26 nM
O=C(CCCCCCOc1ccc2nc(-c3ccccc3)ccc2c1)NO | 8340 nM | 8930 nM | 4250 nM | 9380 nM | 3950 nM | 47.4 nM | inactive | Active; Observed As More Active Than Etoposide | > 500 nM | > 500 nM | 
CN1c2ccc(NCc3ccc(-c4noc(CC(=O)NO)n4)cc3)cc2C(O)N2CCc3c([nH]c4ccc(O)cc34)C12 (stereo unspecified) |  |  |  |  |  |  |  |  |  |  | IC50 [23]: 13 nM; IC50 [24]: 24 nM
O=C(CCCCCOc1ccc(-c2nc3ccccc3c3cc(-c4ccccc4)nn23)cc1)NO |  |  |  |  |  |  |  |  |  |  | IC50 [25]: 790 nM
O=C(CCCCCCOc1ccc(-c2ccc3ccccc3n2)cc1)NO | 3450 nM | 3810 nM | 2460 nM | 4820 nM | 853 nM | 66.5 nM | inactive | Active; Observed As More Active Than Etoposide | 276 nM | > 500 nM | 
